Data on 4 compounds can be found in PubChem BioAssay AID1963831 (Molecular Pharmacology Branch, DTP, NCI, 2024).
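Note: spheroids exposed to compounds for seven days; 100% = DMSO vehicle control viability.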

One test relates to 889142-216-R-J1-PDC complex spheroid viability. Put plainly: Anticancer human tumor 889142-216-R-J1-PDC patient-derived bladder carcinoma cell line growth inhibition [POLQ]. The following applies: second compound 0.316 µM; first compound 1 µM; stronger effect = lower value. In short, it runs like this: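 Growth inhibition in 3D: complex spheroids (tumor PDC, HUVEC, MSC) treated with POLQ inhibitor combinations; where Cmax unknown, highest tested concentration 10 microM, except SN-38 at 1 microM.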
As a reminder, the viability, T/C is the result in the treated group divided by that in the control group, in per cent. As to `C#Cc1c(F)ccc2cc(O)cc(-c3ncc4c(N5CC6CCC(C5)N6)nc(OCC56CCCN5CC(F)C6)nc4c3F)c12` (configuration not stated) + Cc1cccc(N(C)C(=O)C2C(O)CCN2c2nc(C)cc(C(F)(F)F)c2C#N)c1, the viability, T/C was 93.7%.
As to `C=CC(=O)N1CCN(c2nc(=O)n(-c3c(C)ccnc3C(C)C)c3nc(-c4c(O)cccc4F)c(F)cc23)C(C)C1` (configuration not stated) + Cc1cccc(N(C)C(=O)C2C(O)CCN2c2nc(C)cc(C(F)(F)F)c2C#N)c1, the viability, T/C was 116%.
With `CCc1cc2c(N3CCc4c(cc(Cn5ccnc5)cc4-c4cn(C)nc4C(F)(F)F)C3=O)cc(C)nc2c(OC)n1` + Cc1cccc(N(C)C(=O)C2C(O)CCN2c2nc(C)cc(C(F)(F)F)c2C#N)c1, the viability, T/C was 137%.
Regarding `COc1cc2cc(C(=O)CCC(=O)O)sc2cc1OC` + Cc1cccc(N(C)C(=O)C2C(O)CCN2c2nc(C)cc(C(F)(F)F)c2C#N)c1, the viability, T/C is 104%.

The same test, now with this note: second compound 0.316 µM; first compound 3.16 µM; stronger effect = lower value.
Take `C#Cc1c(F)ccc2cc(O)cc(-c3ncc4c(N5CC6CCC(C5)N6)nc(OCC56CCCN5CC(F)C6)nc4c3F)c12` (configuration not stated) + Cc1cccc(N(C)C(=O)C2C(O)CCN2c2nc(C)cc(C(F)(F)F)c2C#N)c1: the viability, T/C is 60.8%.
For the compound `C=CC(=O)N1CCN(c2nc(=O)n(-c3c(C)ccnc3C(C)C)c3nc(-c4c(O)cccc4F)c(F)cc23)C(C)C1` (configuration not stated) + Cc1cccc(N(C)C(=O)C2C(O)CCN2c2nc(C)cc(C(F)(F)F)c2C#N)c1, the viability, T/C is 129%.
Take `CCc1cc2c(N3CCc4c(cc(Cn5ccnc5)cc4-c4cn(C)nc4C(F)(F)F)C3=O)cc(C)nc2c(OC)n1` + Cc1cccc(N(C)C(=O)C2C(O)CCN2c2nc(C)cc(C(F)(F)F)c2C#N)c1: the viability, T/C is 130%.
On the same count and under the same terms, to `COc1cc2cc(C(=O)CCC(=O)O)sc2cc1OC` + Cc1cccc(N(C)C(=O)C2C(O)CCN2c2nc(C)cc(C(F)(F)F)c2C#N)c1 belongs 132%.

Staying with this test, now noted: second compound 0.316 µM; first compound 10 µM; stronger effect = lower value.
For the compound `C#Cc1c(F)ccc2cc(O)cc(-c3ncc4c(N5CC6CCC(C5)N6)nc(OCC56CCCN5CC(F)C6)nc4c3F)c12` (configuration not stated) + Cc1cccc(N(C)C(=O)C2C(O)CCN2c2nc(C)cc(C(F)(F)F)c2C#N)c1, the viability, T/C is 36.3%.
Same read-out and setting: to `C=CC(=O)N1CCN(c2nc(=O)n(-c3c(C)ccnc3C(C)C)c3nc(-c4c(O)cccc4F)c(F)cc23)C(C)C1` (configuration not stated) + Cc1cccc(N(C)C(=O)C2C(O)CCN2c2nc(C)cc(C(F)(F)F)c2C#N)c1 belongs 106%; to `CCc1cc2c(N3CCc4c(cc(Cn5ccnc5)cc4-c4cn(C)nc4C(F)(F)F)C3=O)cc(C)nc2c(OC)n1` + Cc1cccc(N(C)C(=O)C2C(O)CCN2c2nc(C)cc(C(F)(F)F)c2C#N)c1, 83.9%.
Still for that read-out and setting: to `COc1cc2cc(C(=O)CCC(=O)O)sc2cc1OC` + Cc1cccc(N(C)C(=O)C2C(O)CCN2c2nc(C)cc(C(F)(F)F)c2C#N)c1 belongs 74.5%.

Still in this test, the particulars now being: second compound 1 µM; first compound 0.0316 µM; stronger effect = lower value.
As to `C#Cc1c(F)ccc2cc(O)cc(-c3ncc4c(N5CC6CCC(C5)N6)nc(OCC56CCCN5CC(F)C6)nc4c3F)c12` (configuration not stated) + Cc1cccc(N(C)C(=O)C2C(O)CCN2c2nc(C)cc(C(F)(F)F)c2C#N)c1, the viability, T/C is 88.6%.
The same measure, in the same setting: the value for `C=CC(=O)N1CCN(c2nc(=O)n(-c3c(C)ccnc3C(C)C)c3nc(-c4c(O)cccc4F)c(F)cc23)C(C)C1` (configuration not stated) + Cc1cccc(N(C)C(=O)C2C(O)CCN2c2nc(C)cc(C(F)(F)F)c2C#N)c1 was 104%; that for `CCc1cc2c(N3CCc4c(cc(Cn5ccnc5)cc4-c4cn(C)nc4C(F)(F)F)C3=O)cc(C)nc2c(OC)n1` + Cc1cccc(N(C)C(=O)C2C(O)CCN2c2nc(C)cc(C(F)(F)F)c2C#N)c1 was 91%.
As to `COc1cc2cc(C(=O)CCC(=O)O)sc2cc1OC` + Cc1cccc(N(C)C(=O)C2C(O)CCN2c2nc(C)cc(C(F)(F)F)c2C#N)c1, the viability, T/C was 100%.

The test is the same for the next values; noted with them: second compound 1 µM; first compound 0.1 µM; stronger effect = lower value.
With `C#Cc1c(F)ccc2cc(O)cc(-c3ncc4c(N5CC6CCC(C5)N6)nc(OCC56CCCN5CC(F)C6)nc4c3F)c12` (configuration not stated) + Cc1cccc(N(C)C(=O)C2C(O)CCN2c2nc(C)cc(C(F)(F)F)c2C#N)c1, the viability, T/C was 69.1%.
Same read-out and setting: to `C=CC(=O)N1CCN(c2nc(=O)n(-c3c(C)ccnc3C(C)C)c3nc(-c4c(O)cccc4F)c(F)cc23)C(C)C1` (configuration not stated) + Cc1cccc(N(C)C(=O)C2C(O)CCN2c2nc(C)cc(C(F)(F)F)c2C#N)c1 belongs 107%.
On to `CCc1cc2c(N3CCc4c(cc(Cn5ccnc5)cc4-c4cn(C)nc4C(F)(F)F)C3=O)cc(C)nc2c(OC)n1` + Cc1cccc(N(C)C(=O)C2C(O)CCN2c2nc(C)cc(C(F)(F)F)c2C#N)c1, for which the viability, T/C was 106%.
Same read-out and setting: to `COc1cc2cc(C(=O)CCC(=O)O)sc2cc1OC` + Cc1cccc(N(C)C(=O)C2C(O)CCN2c2nc(C)cc(C(F)(F)F)c2C#N)c1 belongs 114%.

Staying with this test, now noted: second compound 1 µM; first compound 0.316 µM; stronger effect = lower value.
For the compound `C#Cc1c(F)ccc2cc(O)cc(-c3ncc4c(N5CC6CCC(C5)N6)nc(OCC56CCCN5CC(F)C6)nc4c3F)c12` (configuration not stated) + Cc1cccc(N(C)C(=O)C2C(O)CCN2c2nc(C)cc(C(F)(F)F)c2C#N)c1, the viability, T/C is 94%.
Same read-out and setting: the value for `C=CC(=O)N1CCN(c2nc(=O)n(-c3c(C)ccnc3C(C)C)c3nc(-c4c(O)cccc4F)c(F)cc23)C(C)C1` (configuration not stated) + Cc1cccc(N(C)C(=O)C2C(O)CCN2c2nc(C)cc(C(F)(F)F)c2C#N)c1 was 107%; that for `CCc1cc2c(N3CCc4c(cc(Cn5ccnc5)cc4-c4cn(C)nc4C(F)(F)F)C3=O)cc(C)nc2c(OC)n1` + Cc1cccc(N(C)C(=O)C2C(O)CCN2c2nc(C)cc(C(F)(F)F)c2C#N)c1 was 143%.
The same measure, in the same setting: the value for `COc1cc2cc(C(=O)CCC(=O)O)sc2cc1OC` + Cc1cccc(N(C)C(=O)C2C(O)CCN2c2nc(C)cc(C(F)(F)F)c2C#N)c1 was 97.9%.

The same test, now with this note: second compound 1 µM; first compound 1 µM; stronger effect = lower value.
As for `C#Cc1c(F)ccc2cc(O)cc(-c3ncc4c(N5CC6CCC(C5)N6)nc(OCC56CCCN5CC(F)C6)nc4c3F)c12` (configuration not stated) + Cc1cccc(N(C)C(=O)C2C(O)CCN2c2nc(C)cc(C(F)(F)F)c2C#N)c1, the viability, T/C is 71.2%.
Turning to `C=CC(=O)N1CCN(c2nc(=O)n(-c3c(C)ccnc3C(C)C)c3nc(-c4c(O)cccc4F)c(F)cc23)C(C)C1` (configuration not stated) + Cc1cccc(N(C)C(=O)C2C(O)CCN2c2nc(C)cc(C(F)(F)F)c2C#N)c1, the viability, T/C is 111%.
On the same count and under the same terms, to `CCc1cc2c(N3CCc4c(cc(Cn5ccnc5)cc4-c4cn(C)nc4C(F)(F)F)C3=O)cc(C)nc2c(OC)n1` + Cc1cccc(N(C)C(=O)C2C(O)CCN2c2nc(C)cc(C(F)(F)F)c2C#N)c1 belongs 112%.
For the compound `COc1cc2cc(C(=O)CCC(=O)O)sc2cc1OC` + Cc1cccc(N(C)C(=O)C2C(O)CCN2c2nc(C)cc(C(F)(F)F)c2C#N)c1, the viability, T/C was 96.9%.

The same test, now with this note: second compound 1 µM; first compound 3.16 µM; stronger effect = lower value.
Take `C#Cc1c(F)ccc2cc(O)cc(-c3ncc4c(N5CC6CCC(C5)N6)nc(OCC56CCCN5CC(F)C6)nc4c3F)c12` (configuration not stated) + Cc1cccc(N(C)C(=O)C2C(O)CCN2c2nc(C)cc(C(F)(F)F)c2C#N)c1: the viability, T/C was 108%.
In the case of `C=CC(=O)N1CCN(c2nc(=O)n(-c3c(C)ccnc3C(C)C)c3nc(-c4c(O)cccc4F)c(F)cc23)C(C)C1` (configuration not stated) + Cc1cccc(N(C)C(=O)C2C(O)CCN2c2nc(C)cc(C(F)(F)F)c2C#N)c1, the viability, T/C is 124%.
With `CCc1cc2c(N3CCc4c(cc(Cn5ccnc5)cc4-c4cn(C)nc4C(F)(F)F)C3=O)cc(C)nc2c(OC)n1` + Cc1cccc(N(C)C(=O)C2C(O)CCN2c2nc(C)cc(C(F)(F)F)c2C#N)c1, the viability, T/C was 94.7%.
With `COc1cc2cc(C(=O)CCC(=O)O)sc2cc1OC` + Cc1cccc(N(C)C(=O)C2C(O)CCN2c2nc(C)cc(C(F)(F)F)c2C#N)c1, the viability, T/C was 102%.

The same test, now with this note: second compound 1 µM; first compound 10 µM; stronger effect = lower value.
As for `C#Cc1c(F)ccc2cc(O)cc(-c3ncc4c(N5CC6CCC(C5)N6)nc(OCC56CCCN5CC(F)C6)nc4c3F)c12` (configuration not stated) + Cc1cccc(N(C)C(=O)C2C(O)CCN2c2nc(C)cc(C(F)(F)F)c2C#N)c1, the viability, T/C is 39.7%.
Still for that read-out and setting: the value for `C=CC(=O)N1CCN(c2nc(=O)n(-c3c(C)ccnc3C(C)C)c3nc(-c4c(O)cccc4F)c(F)cc23)C(C)C1` (configuration not stated) + Cc1cccc(N(C)C(=O)C2C(O)CCN2c2nc(C)cc(C(F)(F)F)c2C#N)c1 was 89.3%; that for `CCc1cc2c(N3CCc4c(cc(Cn5ccnc5)cc4-c4cn(C)nc4C(F)(F)F)C3=O)cc(C)nc2c(OC)n1` + Cc1cccc(N(C)C(=O)C2C(O)CCN2c2nc(C)cc(C(F)(F)F)c2C#N)c1 was 84.3%; that for `COc1cc2cc(C(=O)CCC(=O)O)sc2cc1OC` + Cc1cccc(N(C)C(=O)C2C(O)CCN2c2nc(C)cc(C(F)(F)F)c2C#N)c1 was 66.4%.

Staying with this test, now noted: second compound 3.16 µM; first compound 0.0316 µM; stronger effect = lower value.
As to `C#Cc1c(F)ccc2cc(O)cc(-c3ncc4c(N5CC6CCC(C5)N6)nc(OCC56CCCN5CC(F)C6)nc4c3F)c12` (configuration not stated) + Cc1cccc(N(C)C(=O)C2C(O)CCN2c2nc(C)cc(C(F)(F)F)c2C#N)c1, the viability, T/C was 98.2%.
As to `C=CC(=O)N1CCN(c2nc(=O)n(-c3c(C)ccnc3C(C)C)c3nc(-c4c(O)cccc4F)c(F)cc23)C(C)C1` (configuration not stated) + Cc1cccc(N(C)C(=O)C2C(O)CCN2c2nc(C)cc(C(F)(F)F)c2C#N)c1, the viability, T/C was 98.5%.
Still for that read-out and setting: the value for `CCc1cc2c(N3CCc4c(cc(Cn5ccnc5)cc4-c4cn(C)nc4C(F)(F)F)C3=O)cc(C)nc2c(OC)n1` + Cc1cccc(N(C)C(=O)C2C(O)CCN2c2nc(C)cc(C(F)(F)F)c2C#N)c1 was 104%; that for `COc1cc2cc(C(=O)CCC(=O)O)sc2cc1OC` + Cc1cccc(N(C)C(=O)C2C(O)CCN2c2nc(C)cc(C(F)(F)F)c2C#N)c1 was 96.8%.

Still in this test, the particulars now being: second compound 3.16 µM; first compound 0.1 µM; stronger effect = lower value.
Turning to `C#Cc1c(F)ccc2cc(O)cc(-c3ncc4c(N5CC6CCC(C5)N6)nc(OCC56CCCN5CC(F)C6)nc4c3F)c12` (configuration not stated) + Cc1cccc(N(C)C(=O)C2C(O)CCN2c2nc(C)cc(C(F)(F)F)c2C#N)c1, the viability, T/C is 85.2%.
For the compound `C=CC(=O)N1CCN(c2nc(=O)n(-c3c(C)ccnc3C(C)C)c3nc(-c4c(O)cccc4F)c(F)cc23)C(C)C1` (configuration not stated) + Cc1cccc(N(C)C(=O)C2C(O)CCN2c2nc(C)cc(C(F)(F)F)c2C#N)c1, the viability, T/C is 89.3%.
